Experiments:
[1] = tested on: VEGF; assay: VEGF in supernatant of γ-irradiated NHEK cells (ELISA); type: cell-based, human; conditions: for decrease of VEGF: vs irradiated control; for expression VEGF: γ-irradiation 5 Gγ, 4 days
Protocol: (§1) In order to determine the action of teprenone as per the invention, the effect of GGA on the IL8 and VEGF expression was investigated in the supernatants of irradiated (with 5 Gy) NHEK cells. After γ-irradiation, NHEK cells are treated during 4 days with or without GGA at differents concentrations. The amount of IL8 and VEGF present in the cells supernatant is determined with ELISA method.

[2] = tested on: Thioredoxin; assay: Thioredoxin in cellular supernatant of human fibroblasts (ELISA), with or without UVA; type: cell-based; conditions: for Thioredoxin rate in cellular supernatant: 10^−3%
Protocol: Normal human fibroblasts were tested to ascertain whether exposure to teprenone would stimulate thioredoxin expression in the cellular supernatants.
Human fibroblasts (FHN) in culture were irradiated with UVA (4 and 6 J/cm^2) or not irradiated (control). 24 h before the irradiation, these cells were grown without or with teprenone (GGA at 10^−3%). After irradiation, each case received the same medium (with or without GGA) as before irradiation. Incubations of 24 or 48 h with these fresh mediums were made. Thioredoxin in the cellular supernants was estimated using ELISA method. The results obtained are recapitulated in Table 3

[3] = Lipid peroxidation of liposomes using UVA radiation; type: biochemical; conditions: UVA induced, vs negative control
Protocol: In order to determine the action of teprenone as per the invention, the effect of the active substance on the lipid peroxidation of liposomes was analyzed. The liposomes were used to model cutaneous lipids.
In this method, liposomes are exposed to the test compound and then to UV A radiation. Peroxidation is determined by spectrophotometry at 233 nm.

[4] = tested on: IL8; assay: IL8 in supernatant of γ-irradiated NHEK cells (ELISA); type: cell-based, human; conditions: for decrease of IL8: vs irradiated control; for expression of IL8: γ-irradiation 5 Gγ, 4 days
Protocol: as §1

[5] = tested on: Normal human fibroblasts (FHN); assay: Replicative capacity of serially sub-cultured fibroblasts; type: cell-based
Description: Normal human fibroblasts are able to divide a limited number of times: according to the literature, 30 times approximately. Progressively, the cells change morphology and become less and less suited to the mitosis: time between 2 mitoses lengthens, the cellular metabolism is very slowed down, the cells are known as senescent.
Normal human fibroblasts (FHN) are cultivated until the “12th cycle” in order to begin the tests with cells already part-time from the duration life (=12 cycles of replication on 30 cycles), they are then separate in 3 batches: The batch control, the batch treated daily by 1 μM of teprenone and the batch daily treated with 3 μM of teprenone.
Each plate contains ˜50 000 cells and the cells cultivated in medium DMEM, until confluency or until obtaining enough cells for the taking away of 50 000 cells necessary to the following cycle. At each time the cells are collected by trypsinisation, are counted, and aliquot of 50 000 cells seeded for the following cycle. This cycle is repeated until it is no more possible to obtain cellular multiplication.

[6] = tested on: NHEK; assay: NHEK cell re-colonization after scraping and irradiation; type: cell-based, human; conditions: 3 · 10^−5%
Protocol: NHEK were inoculated into Labtech microplates and cultured to post-confluence with or without teprenone. The cultures were then mechanically scraped and exposed to radiation at a dose level of 0, 5 or 10 Gy. The percentage area re-colonized post-irradiation was determined.

[7] = tested on: Hsp27; assay: Hsp27 immunolabeling in UVB-irradiated human skin explants; type: cell-based; conditions: for Number of Hsp27 positive cells/cm: UVB 2 J/cm2, n = 3
Description: Heat Schock proteins (Hsp) are cellular protective molecules which contribute to the correct proteinic folding, thus preserving the protein activity. Hsp 27 is a protective chaperone protein very present in the keratinocytes at the basal state. In situation of UV stress, cell increases its rate of protection and Hsp 27 is strongly overexpressed. Hsp70 is a chaperone protein less expressed in a basal state but induced in response to the UV, thermics, mechanics or infectious stress.
Human skin explants are treated in a similar way to the previous experiment (protection on the catalase activity): taken from a plastic surgery, they are cultivated for 48 h in the presence or not, for control, of teprenone (or trolox) at various concentrations, then irradiated or not using a source UVB (2 J/cm2). After irradiation skin explants were post-treated (24 h) or not with teprenone (or trolox) at the same concentrations.
Explants were embedded in OCT, sectioned using a freezing microtome, and slide mounted. The mounted specimens were immunolabeled with anti-human Hsp antibody.

## CC(=O)CCC=C(C)CCC=C(C)CCC=C(C)CCC=C(C)C [Teprenone, 6,10,14,18-tetramethyl-5,9,13-nonadecatetren-2-one]
[1]; 1 · 10^−4%
  decrease of VEGF: −47%
  expression VEGF: 3 pg/10⁵ cells
[1]; 3 · 10^−5%
  decrease of VEGF: −30%
  expression VEGF: 3.5 pg/10⁵ cells
[2]; UVA 4 J/cm^2, incubation 24 h
  Thioredoxin rate in cellular supernatant: 24.3 ng/mg protein
[2]; UVA 4 J/cm^2, incubation 48 h
  Thioredoxin rate in cellular supernatant: 32.4 ng/mg protein
[2]; UVA 6 J/cm^2, incubation 24 h
  Thioredoxin rate in cellular supernatant: 43.7 ng/mg protein
[2]; UVA 6 J/cm^2, incubation 48 h
  Thioredoxin rate in cellular supernatant: 59.2 ng/mg protein
[2]; not irradiated, incubation 24 h
  Thioredoxin rate in cellular supernatant: 11.6 ng/mg protein
[2]; not irradiated, incubation 48 h
  Thioredoxin rate in cellular supernatant: 28.5 ng/mg protein
[2]; 24 h incubation, 4 J/cm^2
  increase of thioredoxin rate in the cellular supernatant: +30%
[2]; 24 h incubation, 6 J/cm^2
  increase of thioredoxin rate in the cellular supernatant: +40%
[2]; 24 h incubation, without irradiation
  increase of thioredoxin rate in the cellular supernatant: +60%
[2]; 48 h incubation, 4 J/cm^2
  increase of thioredoxin rate in the cellular supernatant: +50%
[2]; 48 h incubation, 6 J/cm^2
  increase of thioredoxin rate in the cellular supernatant: 40%
[2]; 48 h incubation, non irradiated
  increase of thioredoxin rate in the cellular supernatant: +150%
[3]; concentration 3 · 10^−2%
  Variation of peroxydation: −77%
[3]; concentration 3 · 10^−3%
  Variation of peroxydation: −10%
[3]; concentration 3 · 10^−4%
  Variation of peroxydation: −22%
[3]; concentration 10^−2%
  Variation of peroxydation: −52%
[3]; concentration 10^−3%
  Variation of peroxydation: −12%
[4]; 1.10^−4%
  decrease of IL8: −67%
[4]; 3.10^−5%
  decrease of IL8: −50%
[4]; 1 · 10^−4%
  expression of IL8: 2.12 pg/10^5 cells
[4]; 3 · 10^−5%
  expression of IL8: 3.25 pg/10^5 cells
[5]; 1 μM
  cycle until which the fibroblasts remained more active: 22
  entry into marked senescence, later than the controls: 44 days
[5]; 1 μM, cycle 13 (7 d)
  Nb cells (×10^3): 204 ×10^3
[5]; 1 μM, cycle 14 (8 d)
  Nb cells (×10^3): 214 ×10^3
[5]; 1 μM, cycle 15 (11 d)
  Nb cells (×10^3): 199 ×10^3
[5]; 1 μM, cycle 16 (14 d)
  Nb cells (×10^3): 186 ×10^3
[5]; 1 μM, cycle 17 (13 d)
  Nb cells (×10^3): 164 ×10^3
[5]; 1 μM, cycle 18 (18 d)
  Nb cells (×10^3): 197 ×10^3
[5]; 1 μM, cycle 19 (17 ds)
  Nb cells (×10^3): 185 ×10^3
[5]; 1 μM, cycle 20 (14 d)
  Nb cells (×10^3): 124 ×10^3
  Replicative capac vs control: +13
[5]; 1 μM, cycle 21 (22 d)
  Nb cells (×10^3): 130 ×10^3
  Replicative capac vs control: +38
[5]; 1 μM, cycle 22 (20 d)
  Nb cells (×10^3): 146 ×10^3
  Replicative capac vs control: +117
[5]; 1 μM, cycle 23 (36 d)
  Nb cells (×10^3): 105 ×10^3
  Replicative capac vs control: +25
[5]; 1 μM, cycle 24 (28 d)
  Nb cells (×10^3): 66 ×10^3
  Replicative capac vs control: ns
[5]; 1 μM, cycle 25 (77 d)
  Nb cells (×10^3): 59 ×10^3
  Replicative capac vs control: ns
[5]; 3 μM
  cycle until which the fibroblasts retained their replicative potential: 24
  fibroblast lifetime extended with no impairment of replicative capacity: 100 days
  replicative potential retained, later than the controls: 100 days
[5]; 3 μM, after cycle 24
  activity of treated cells vs control cells after replicative potential began to subside: almost two-fold more active than the control cells
[5]; 3 μM, cycle 13 (7 d)
  Nb cells (×10^3): 213 ×10^3
[5]; 3 μM, cycle 14 (8 d)
  Nb cells (×10^3): 195 ×10^3
[5]; 3 μM, cycle 15 (11 d)
  Nb cells (×10^3): 140 ×10^3
[5]; 3 μM, cycle 16 (14 d)
  Nb cells (×10^3): 167 ×10^3
[5]; 3 μM, cycle 17 (13 d)
  Nb cells (×10^3): 166 ×10^3
[5]; 3 μM, cycle 18 (18 d)
  Nb cells (×10^3): 192 ×10^3
[5]; 3 μM, cycle 19 (17 ds)
  Nb cells (×10^3): 198 ×10^3
[5]; 3 μM, cycle 20 (14 d)
  Nb cells (×10^3): 145 ×10^3
  Replicative capac vs control: +33
[5]; 3 μM, cycle 21 (22 d)
  Nb cells (×10^3): 154 ×10^3
  Replicative capac vs control: +64
[5]; 3 μM, cycle 22 (20 d)
  Nb cells (×10^3): 157 ×10^3
  Replicative capac vs control: +134
[5]; 3 μM, cycle 23 (36 d)
  Nb cells (×10^3): 204 ×10^3
  Replicative capac vs control: +99
[5]; 3 μM, cycle 24 (28 d)
  Nb cells (×10^3): 115 ×10^3
  Replicative capac vs control: +79
[5]; 3 μM, cycle 25 (77 d)
  Nb cells (×10^3): 95 ×10^3
  Replicative capac vs control: 82
[6]; 5 Gγ
  % on NHEK re-colonization 24 hours after: faster re-colonization
[6]; 5 Gγ, listed as GGA
  % on NHEK re-colonization 24 hours after: 80%
[6]; 10 Gγ
  % on NHEK re-colonization 24 hours after: 60%
[6]; not irradiated
  % on NHEK re-colonization 24 hours after: 62%
[7]; 0.05 mM
  Hsp27: Protection vs. irradiated (%): 50%
  Number of Hsp27 positive cells/cm: 530 cells/cm
[7]; 0.1 mM
  Hsp27: Protection vs. irradiated (%): 75%
  Number of Hsp27 positive cells/cm: 400 cells/cm
[7]; 0.1 mM, listed as GGA
  Hsp27: Protection vs. irradiated (%): 75%

— patent US20090214607A1, “Topical use of teprenone” (SEDERMA, priority 2005, published 2009)
